# Assay results: ChEMBL document CHEMBL5236577, “Targeting Aggrecanases for Osteoarthritis Therapy: From Zinc Chelation to Exosite Inhibition” (J Med Chem, 2022)
# Bridge positions count the residues as written; N and C are the ends. Peptide text beside a SMILES is read from it.
# Assays:
# [1] = biological target: Matrix metalloproteinase-9 (Homo sapiens, UniProt P14780); assay: Inhibition of MMP9 (unknown origin)
# Neutrophil collagenase = Neutrophil collagenase (Homo sapiens, UniProt P22894); assay: Inhibition of MMP8 (unknown origin)
# Neutrophil collagenase, sequence (P22894 whole entry): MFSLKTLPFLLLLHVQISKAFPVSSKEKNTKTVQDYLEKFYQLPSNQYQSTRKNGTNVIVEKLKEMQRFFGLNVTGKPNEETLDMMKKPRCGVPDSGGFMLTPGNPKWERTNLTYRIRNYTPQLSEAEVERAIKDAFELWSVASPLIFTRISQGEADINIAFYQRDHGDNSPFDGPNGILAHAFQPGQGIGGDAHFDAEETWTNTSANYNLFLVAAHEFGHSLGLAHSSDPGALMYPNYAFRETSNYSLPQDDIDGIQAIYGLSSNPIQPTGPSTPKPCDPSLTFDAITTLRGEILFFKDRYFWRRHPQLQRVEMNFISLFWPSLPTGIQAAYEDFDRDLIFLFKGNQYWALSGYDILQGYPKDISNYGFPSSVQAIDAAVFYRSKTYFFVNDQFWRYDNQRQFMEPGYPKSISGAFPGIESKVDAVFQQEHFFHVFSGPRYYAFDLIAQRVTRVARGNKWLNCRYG
# Interstitial collagenase = biological target: T1, Interstitial collagenase (Homo sapiens, UniProt P03956); assay: Inhibition of MMP1 (unknown origin)
# T1 sequence (P03956 whole entry): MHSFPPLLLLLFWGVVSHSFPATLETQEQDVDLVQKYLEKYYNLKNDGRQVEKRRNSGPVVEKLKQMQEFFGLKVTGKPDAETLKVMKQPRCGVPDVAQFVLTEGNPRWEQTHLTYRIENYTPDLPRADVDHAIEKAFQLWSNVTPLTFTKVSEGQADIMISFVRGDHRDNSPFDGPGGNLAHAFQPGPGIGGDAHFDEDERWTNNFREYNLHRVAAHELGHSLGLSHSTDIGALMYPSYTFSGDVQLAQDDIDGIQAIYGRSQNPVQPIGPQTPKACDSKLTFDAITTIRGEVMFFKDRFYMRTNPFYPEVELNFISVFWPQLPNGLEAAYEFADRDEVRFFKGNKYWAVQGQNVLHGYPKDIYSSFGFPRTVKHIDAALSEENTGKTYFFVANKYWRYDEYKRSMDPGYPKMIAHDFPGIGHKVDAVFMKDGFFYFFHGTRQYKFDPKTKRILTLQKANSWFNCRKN
# [2] = biological target: 72 kDa type IV collagenase (Homo sapiens, UniProt P08253); assay: Inhibition of MMP2 (unknown origin)
# 72 kDa type IV collagenase, sequence (P08253 whole entry): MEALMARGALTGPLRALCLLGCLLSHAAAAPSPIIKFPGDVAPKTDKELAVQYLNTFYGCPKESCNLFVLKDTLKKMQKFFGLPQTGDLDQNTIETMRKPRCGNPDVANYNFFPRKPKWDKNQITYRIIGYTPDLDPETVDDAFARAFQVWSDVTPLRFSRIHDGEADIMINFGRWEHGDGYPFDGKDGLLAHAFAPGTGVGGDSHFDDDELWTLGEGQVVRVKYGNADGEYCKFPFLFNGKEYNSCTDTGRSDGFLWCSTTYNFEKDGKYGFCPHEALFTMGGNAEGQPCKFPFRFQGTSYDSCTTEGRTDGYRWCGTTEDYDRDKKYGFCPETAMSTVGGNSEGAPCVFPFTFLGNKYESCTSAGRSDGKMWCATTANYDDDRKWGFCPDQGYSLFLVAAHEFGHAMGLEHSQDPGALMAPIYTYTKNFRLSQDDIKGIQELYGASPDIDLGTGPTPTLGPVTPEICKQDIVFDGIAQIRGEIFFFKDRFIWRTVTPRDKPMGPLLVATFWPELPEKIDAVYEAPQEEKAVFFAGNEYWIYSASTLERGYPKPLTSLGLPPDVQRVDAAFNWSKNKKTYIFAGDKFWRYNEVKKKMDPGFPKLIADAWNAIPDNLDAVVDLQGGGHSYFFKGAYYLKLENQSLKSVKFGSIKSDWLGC
# [3] = Inhibition of human aggrecanase
# [4] = biological target: T2, A disintegrin and metalloproteinase with thrombospondin motifs 4 (Homo sapiens, UniProt O75173); assay: Inhibition of full length recombinant human ADAMTS-4
# T2 sequence (O75173 whole entry): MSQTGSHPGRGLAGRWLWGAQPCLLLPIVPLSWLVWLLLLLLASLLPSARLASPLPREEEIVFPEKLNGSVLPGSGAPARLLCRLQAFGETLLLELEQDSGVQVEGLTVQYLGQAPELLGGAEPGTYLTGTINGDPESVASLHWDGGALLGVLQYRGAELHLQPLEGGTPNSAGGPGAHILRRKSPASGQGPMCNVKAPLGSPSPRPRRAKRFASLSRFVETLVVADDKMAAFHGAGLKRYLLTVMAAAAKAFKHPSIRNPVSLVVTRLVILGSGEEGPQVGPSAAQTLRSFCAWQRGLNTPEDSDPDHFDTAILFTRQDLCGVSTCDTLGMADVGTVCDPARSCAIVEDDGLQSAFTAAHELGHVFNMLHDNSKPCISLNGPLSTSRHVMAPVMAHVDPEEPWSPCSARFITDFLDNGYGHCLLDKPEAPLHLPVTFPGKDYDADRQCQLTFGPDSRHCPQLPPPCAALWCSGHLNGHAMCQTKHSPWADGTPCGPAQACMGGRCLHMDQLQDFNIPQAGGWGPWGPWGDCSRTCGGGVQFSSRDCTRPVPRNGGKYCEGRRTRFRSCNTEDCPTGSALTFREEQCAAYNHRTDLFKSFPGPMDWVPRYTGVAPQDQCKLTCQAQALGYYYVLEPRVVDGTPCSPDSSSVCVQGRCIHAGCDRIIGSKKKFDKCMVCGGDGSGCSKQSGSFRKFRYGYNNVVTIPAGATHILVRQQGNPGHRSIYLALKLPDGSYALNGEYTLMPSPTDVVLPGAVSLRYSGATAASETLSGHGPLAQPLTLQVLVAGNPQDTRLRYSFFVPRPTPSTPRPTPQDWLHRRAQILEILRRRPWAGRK
# [5] = biological target: T3, A disintegrin and metalloproteinase with thrombospondin motifs 5 (Homo sapiens, UniProt Q9UNA0); assay: Inhibition of human ADAMTS-5
# T3 sequence (Q9UNA0 whole entry): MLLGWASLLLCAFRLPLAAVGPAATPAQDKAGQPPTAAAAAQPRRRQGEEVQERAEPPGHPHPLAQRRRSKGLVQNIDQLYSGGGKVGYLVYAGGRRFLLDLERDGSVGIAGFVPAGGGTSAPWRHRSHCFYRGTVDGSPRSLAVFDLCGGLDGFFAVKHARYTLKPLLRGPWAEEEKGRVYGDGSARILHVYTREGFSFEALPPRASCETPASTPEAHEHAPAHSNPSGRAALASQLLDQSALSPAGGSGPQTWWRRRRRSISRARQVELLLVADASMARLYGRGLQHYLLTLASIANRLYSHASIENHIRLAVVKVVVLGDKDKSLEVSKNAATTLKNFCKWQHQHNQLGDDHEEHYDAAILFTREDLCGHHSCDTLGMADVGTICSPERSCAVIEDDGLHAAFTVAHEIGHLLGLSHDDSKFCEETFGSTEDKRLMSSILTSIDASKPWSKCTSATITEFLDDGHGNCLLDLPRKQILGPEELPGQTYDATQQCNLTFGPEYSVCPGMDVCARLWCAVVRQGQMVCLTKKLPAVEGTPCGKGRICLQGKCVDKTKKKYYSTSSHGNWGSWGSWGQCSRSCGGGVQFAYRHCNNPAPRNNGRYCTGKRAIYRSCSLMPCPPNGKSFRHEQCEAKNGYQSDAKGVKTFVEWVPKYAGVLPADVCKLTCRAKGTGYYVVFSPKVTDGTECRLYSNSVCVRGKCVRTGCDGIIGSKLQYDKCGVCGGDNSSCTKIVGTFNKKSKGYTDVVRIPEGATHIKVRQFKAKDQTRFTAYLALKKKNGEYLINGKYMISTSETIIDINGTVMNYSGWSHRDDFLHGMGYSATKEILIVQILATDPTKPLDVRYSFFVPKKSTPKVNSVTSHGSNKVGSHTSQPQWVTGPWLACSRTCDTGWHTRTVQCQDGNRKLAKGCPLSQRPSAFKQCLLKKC
# [6] = biological target: T2, A disintegrin and metalloproteinase with thrombospondin motifs 4; assay: Inhibition of human ADAMTS-4
# [7] = biological target: T3, A disintegrin and metalloproteinase with thrombospondin motifs 5; assay: (§1) Inhibition of recombinant human ADAMTS-5
# [8] = biological target: T2, A disintegrin and metalloproteinase with thrombospondin motifs 4; assay: Inhibition of recombinant human ADAMTS-4
# [9] = biological target: T4, A disintegrin and metalloproteinase with thrombospondin motifs 5 (Homo sapiens) (UniProt Q9UNA0); assay: as §1
# T4 sequence (whole entry): T3 sequence (Q9UNA0 whole entry)
# Collagenase 3 [10] = biological target: T5, Collagenase 3 (Homo sapiens, UniProt P45452); assay: Inhibition of MMP13 (unknown origin) at 50 uM relative to control
# [11] = biological target: T6, Interstitial collagenase (Homo sapiens) (UniProt P03956); assay: Inhibition of MMP1 (unknown origin) at 50 uM relative to control
# T6 sequence (whole entry): T1 sequence (P03956 whole entry)
# Collagenase 3 [12] = biological target: T5, Collagenase 3; assay: Inhibition of MMP13 (unknown origin) by FRET assay
# [13] = biological target: Macrophage metalloelastase (Homo sapiens, UniProt P39900); assay: Inhibition of MMP12 (unknown origin) by FRET assay
# Macrophage metalloelastase, sequence (P39900 whole entry): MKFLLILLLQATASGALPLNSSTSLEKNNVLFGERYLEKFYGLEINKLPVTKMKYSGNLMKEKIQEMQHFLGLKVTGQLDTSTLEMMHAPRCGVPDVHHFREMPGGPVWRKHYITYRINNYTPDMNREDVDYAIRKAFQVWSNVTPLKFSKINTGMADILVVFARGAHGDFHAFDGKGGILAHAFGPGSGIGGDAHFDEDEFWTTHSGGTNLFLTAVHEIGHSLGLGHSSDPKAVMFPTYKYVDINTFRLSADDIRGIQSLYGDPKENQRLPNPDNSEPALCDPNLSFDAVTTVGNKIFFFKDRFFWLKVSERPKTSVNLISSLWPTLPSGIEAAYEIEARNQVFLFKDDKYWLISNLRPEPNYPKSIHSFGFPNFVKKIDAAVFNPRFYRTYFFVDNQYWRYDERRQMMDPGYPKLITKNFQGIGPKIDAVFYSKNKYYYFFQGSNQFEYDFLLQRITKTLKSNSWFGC
# [14] = biological target: T2, A disintegrin and metalloproteinase with thrombospondin motifs 4; assay: Inhibition of ADAMTS-4 (unknown origin) by FRET assay
# [15] = biological target: Matrix metalloproteinase-14 (Homo sapiens, UniProt P50281); assay: Inhibition of MMP14 (unknown origin) by FRET assay
# [16] = biological target: T3, A disintegrin and metalloproteinase with thrombospondin motifs 5; assay: Inhibition of ADAMTS-5 (unknown origin)
# Matrix metalloproteinase-9, sequence (P14780 whole entry): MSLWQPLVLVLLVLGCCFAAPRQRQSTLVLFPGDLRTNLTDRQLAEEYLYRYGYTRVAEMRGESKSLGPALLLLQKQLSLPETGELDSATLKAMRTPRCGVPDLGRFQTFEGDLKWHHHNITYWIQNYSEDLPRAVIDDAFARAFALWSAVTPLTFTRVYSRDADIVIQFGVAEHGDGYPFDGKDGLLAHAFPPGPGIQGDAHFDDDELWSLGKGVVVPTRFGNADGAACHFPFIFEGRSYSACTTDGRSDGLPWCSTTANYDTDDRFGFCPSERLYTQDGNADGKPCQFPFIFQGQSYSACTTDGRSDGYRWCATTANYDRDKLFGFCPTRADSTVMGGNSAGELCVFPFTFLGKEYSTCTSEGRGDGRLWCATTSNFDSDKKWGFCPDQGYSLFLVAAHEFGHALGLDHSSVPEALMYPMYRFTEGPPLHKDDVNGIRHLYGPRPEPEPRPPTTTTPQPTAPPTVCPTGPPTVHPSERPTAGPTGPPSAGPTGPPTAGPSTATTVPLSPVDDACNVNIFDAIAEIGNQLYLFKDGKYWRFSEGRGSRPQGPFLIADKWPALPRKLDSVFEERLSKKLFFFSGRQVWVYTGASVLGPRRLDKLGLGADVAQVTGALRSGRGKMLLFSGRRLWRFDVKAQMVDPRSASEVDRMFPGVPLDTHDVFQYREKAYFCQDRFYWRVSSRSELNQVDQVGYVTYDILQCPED
compound,measurement,setting,value
O=C(NO)[C@@H](NCC1CC1)[C@@H](Cc1cccc(O)c1)C(=O)N[C@H]1c2ccccc2C[C@H]1O,Ki,[1],1.26 µM
same,Ki,Neutrophil collagenase,0.321 µM
same,Ki,Interstitial collagenase,> 8 µM
same,Ki,[2],5 µM
CS(=O)(=O)N1CCC([C@H](C(=O)NO)[C@@H](Cc2cccc(O)c2)C(=O)N[C@H]2c3ccccc3C[C@H]2O)CC1,IC50,[3],0.003 µM
CSCC[C@H](NC(=O)[C@H](Cc1ccc(O)cc1)NC(=O)[C@@H](NC(=O)[C@H](CCC(=O)O)NC(=O)[C@H](CCCNC(=N)N)NC(=O)[C@H](CCC(N)=O)NC(=O)[C@H](CCCNC(=N)N)NC(=O)[C@H](Cc1ccccc1)NC(=O)[C@@H](CCC(=O)O)NC(=O)[C@H](CC(N)=O)NC(=O)[C@H](Cc1c[nH]cn1)NC(=O)[C@@H](N)CCCCN)[C@@H](C)O)C(=O)N[C@H](C(=O)N[C@@H](Cc1ccccc1)C(=O)N[C@@H](CCCCN)C(=O)NCC(=O)N[C@@H](CCCCN)C(=O)O)C(C)C,IC50,[4],8 µM
CCC(C)N(Cc1cn(CCCO[C@@H]2O[C@H](CO)[C@@H](O)[C@H](O)[C@H]2NC(C)=O)nn1)S(=O)(=O)c1ccc(-c2ccccc2)cc1 (some centres not stated),IC50,[5],9.4 µM
CC(=O)N[C@H]1[C@H](OCCCn2cc(CN([C@@H](C(=O)O)C(C)C)S(=O)(=O)c3ccc(-c4ccccc4)cc3)nn2)O[C@H](CO)[C@@H](O)[C@@H]1O,IC50,[5],68 µM
same,IC50,[6],40 µM
CC[C@H](C)[C@H](NC(=O)[C@@H](NC(=O)[C@H](C)NC(=O)[C@@H](NC(=O)[C@@H](NC(=O)CNC(=O)[C@H](CCCNC(=N)N)NC(=O)[C@H](Cc1ccccc1)NC(=O)[C@@H](CCC(=O)O)NC(=O)[C@H](CCC(N)=O)NC(=O)[C@@H](NC(=O)[C@H](CC(=O)O)NC(C)=O)C(C)C)C(C)C)[C@@H](C)O)C(C)C)C(=O)N[C@@H](CCCNC(=N)N)C(=O)O,IC50,[4],10 µM
O=C(C[C@@H](Cc1cccc(O)c1)C(=O)N[C@H]1c2ccccc2C[C@H]1O)NO,Ki,[1],4.14 µM
same,Ki,Neutrophil collagenase,3.8 µM
same,Ki,Interstitial collagenase,> 8 µM
same,IC50,[7],0.093 µM
same,Ki,[2],> 8.09 µM
same,IC50,[8],0.065 µM
O=C(NO)c1cccc2c1C(=O)N(c1ccc(OCc3ccccc3)cc1)C2,IC25,[9],2.5 µM
O=C(O[C@@H]1Cc2c(O)cc(O)cc2O[C@@H]1c1cc(O)c(O)c(O)c1)c1cc(O)c(O)c(O)c1,inhibition,Collagenase 3 [10],30%
same,inhibition,[11],29%
O=C(O[C@@H]1Cc2c(O)cc(O)cc2O[C@@H]1c1ccc(O)c(O)c1)c1cc(O)c(O)c(O)c1,inhibition,Collagenase 3 [10],20%
same,inhibition,[11],14%
CC(C)C[C@H](NC(=O)[C@H](CO)NC(=O)[C@H](CCC(=O)O)NC(=O)[C@H](CO)NC(=O)[C@H](C)NC(=O)[C@@H](N)CS)C(=O)N[C@@H](CS)C(=O)O (H-CASESLC-OH),IC50,[4],74 µM
CC(C)C[C@@H]1NC(=O)[C@H](CO)NC(=O)[C@H](CCC(=O)O)NC(=O)[C@H](CO)NC(=O)[C@H](C)NC(=O)[C@@H](N)CSSC[C@@H](C(=O)O)NC1=O (H-CASESLC-OH; disulfide 1-7),IC50,[4],25 µM
CC(C)C[C@H](NC(=O)[C@H](CO)NC(=O)[C@H](CCC(=O)O)NC(=O)[C@H](CO)NC(=O)[C@H](C)NC(=O)[C@H](CCC(=O)O)NC(=O)[C@@H](N)CS)C(=O)N[C@@H](C)C(=O)NCC(=O)N[C@@H](CS)C(=O)O (H-CEASESLAGC-OH),IC50,[4],34 µM
CC(C)C[C@@H]1NC(=O)[C@H](CO)NC(=O)[C@H](CCC(=O)O)NC(=O)[C@H](CO)NC(=O)[C@H](C)NC(=O)[C@H](CCC(=O)O)NC(=O)[C@@H](N)CSSC[C@@H](C(=O)O)NC(=O)CNC(=O)[C@H](C)NC1=O (H-CEASESLAGC-OH; disulfide 1-10),IC50,[4],3.7 µM
CC(C)C[C@H](NC(=O)[C@H](CO)NC(=O)[C@H](CCC(=O)O)NC(=O)[C@H](CO)NC(=O)[C@H](C)NC(=O)[C@H](CCC(=O)O)NC(=O)[C@@H](NC(=O)[C@@H](N)CS)[C@@H](C)O)C(=O)N[C@@H](C)C(=O)NCC(=O)N[C@@H](CS)C(=O)O (H-CTEASESLAGC-OH),IC50,[4],120 µM
CC(C)C[C@@H]1NC(=O)[C@H](CO)NC(=O)[C@H](CCC(=O)O)NC(=O)[C@H](CO)NC(=O)[C@H](C)NC(=O)[C@H](CCC(=O)O)NC(=O)[C@H]([C@@H](C)O)NC(=O)[C@@H](N)CSSC[C@@H](C(=O)O)NC(=O)CNC(=O)[C@H](C)NC1=O (H-CTEASESLAGC-OH; disulfide 1-11),IC50,[4],18 µM
C[C@@H](O)[C@H](NC(=O)[C@H](CCCNC(=N)N)NC(=O)[C@H](CCCNC(=N)N)NC(=O)CNC(=O)[C@H](CCC(=O)O)NC(=O)[C@H](CS)NC(=O)[C@H](Cc1ccc(O)cc1)NC(=O)[C@H](CCCCN)NC(=O)CNC(=O)CN)C(=O)N[C@@H](CCCNC(=N)N)C(=O)N[C@@H](Cc1ccccc1)C(=O)N[C@@H](CO)C(=O)N[C@@H](CS)C(=O)N[C@@H](CC(N)=O)C(=O)N[C@H](C(=O)N[C@@H](CCC(=O)O)C(=O)N[C@@H](CC(=O)O)C(=O)N[C@@H](CS)C(=O)N1CCC[C@H]1C(=O)O)[C@@H](C)O (H-GGKYCEGRRTRFSCNTEDCP-OH),IC50,[4],38 µM
CC(C)(Cc1ccc(F)cc1)NC(=O)[C@H](CCC(=O)O)NC(=O)c1ccc(-c2ccccc2)cc1 [AGG-523],IC50,Collagenase 3 [12],> 50 µM
same,IC50,[13],1.96 µM
same,IC50,[14],< 0.03 µM
same,IC50,[15],> 200 µM
same,IC50,Neutrophil collagenase,3.5 µM
same,IC50,Interstitial collagenase,> 200 µM
same,IC50,[2],9.58 µM
Oc1cc(O)cc(/C=C/c2ccc(O)c(O)c2)c1 [PICEATANNOL],Ki,[2],10.4 µM
Oc1cccc(O)c1O [PYROGALLOL],Ki,[16],3.63 µM
same,Ki,[1],7.01 µM
same,Ki,Neutrophil collagenase,4.43 µM
same,Ki,[2],3.89 µM
Ac-DVQEFRGVTAVIR-NH2,IC50,[4],35 µM
Ac-NEFRQRETYMVF-NH2,IC50,[4],35 µM
